Measurements from BindingDB's records for doi:10.1021/acs.jmedchem.7b01670 (Vrije Universiteit Amsterdam, 2018).

What was measured:
Phosphodiesterase = target: T1, Phosphodiesterase (Trypanosoma brucei, UniProt Q8WQX9); test: Inhibition of full length Trypanosoma brucei PDEB1 expressed in Sf21 insect cells using cAMP as substrate by scintillation proximity assay
T1 sequence (Q8WQX9 whole entry): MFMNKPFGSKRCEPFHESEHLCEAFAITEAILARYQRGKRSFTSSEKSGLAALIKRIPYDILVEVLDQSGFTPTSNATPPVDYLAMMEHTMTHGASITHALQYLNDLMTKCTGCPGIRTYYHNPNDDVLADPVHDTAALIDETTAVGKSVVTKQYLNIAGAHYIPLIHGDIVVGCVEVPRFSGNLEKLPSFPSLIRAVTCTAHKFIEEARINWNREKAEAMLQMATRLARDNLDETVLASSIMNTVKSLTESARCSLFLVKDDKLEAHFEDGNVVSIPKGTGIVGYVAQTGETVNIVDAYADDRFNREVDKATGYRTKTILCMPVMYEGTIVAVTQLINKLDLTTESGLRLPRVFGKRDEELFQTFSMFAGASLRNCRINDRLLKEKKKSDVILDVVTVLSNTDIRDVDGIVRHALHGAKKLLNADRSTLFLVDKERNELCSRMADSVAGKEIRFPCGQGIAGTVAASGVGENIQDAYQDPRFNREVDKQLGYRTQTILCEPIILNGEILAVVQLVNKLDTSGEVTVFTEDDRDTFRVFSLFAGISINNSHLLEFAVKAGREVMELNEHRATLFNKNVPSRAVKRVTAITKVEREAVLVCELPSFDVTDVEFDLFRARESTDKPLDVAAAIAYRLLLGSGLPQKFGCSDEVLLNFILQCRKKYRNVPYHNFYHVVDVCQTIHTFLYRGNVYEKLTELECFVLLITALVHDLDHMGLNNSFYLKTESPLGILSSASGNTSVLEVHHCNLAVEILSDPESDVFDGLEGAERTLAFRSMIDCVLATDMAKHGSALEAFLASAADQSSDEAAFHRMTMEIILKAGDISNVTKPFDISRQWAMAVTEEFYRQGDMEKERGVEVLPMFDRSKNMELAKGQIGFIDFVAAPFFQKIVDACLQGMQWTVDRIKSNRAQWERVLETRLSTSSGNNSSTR

[1] = target: cAMP-specific 3',5'-cyclic phosphodiesterase 4B (Homo sapiens, UniProt Q07343); test: Inhibition of full length recombinant human PDE4B1 expressed in Sf21 insect cells using cAMP as substrate by scintillation proximity assay
Chain of cAMP-specific 3',5'-cyclic phosphodiesterase 4B (Q07343 whole entry): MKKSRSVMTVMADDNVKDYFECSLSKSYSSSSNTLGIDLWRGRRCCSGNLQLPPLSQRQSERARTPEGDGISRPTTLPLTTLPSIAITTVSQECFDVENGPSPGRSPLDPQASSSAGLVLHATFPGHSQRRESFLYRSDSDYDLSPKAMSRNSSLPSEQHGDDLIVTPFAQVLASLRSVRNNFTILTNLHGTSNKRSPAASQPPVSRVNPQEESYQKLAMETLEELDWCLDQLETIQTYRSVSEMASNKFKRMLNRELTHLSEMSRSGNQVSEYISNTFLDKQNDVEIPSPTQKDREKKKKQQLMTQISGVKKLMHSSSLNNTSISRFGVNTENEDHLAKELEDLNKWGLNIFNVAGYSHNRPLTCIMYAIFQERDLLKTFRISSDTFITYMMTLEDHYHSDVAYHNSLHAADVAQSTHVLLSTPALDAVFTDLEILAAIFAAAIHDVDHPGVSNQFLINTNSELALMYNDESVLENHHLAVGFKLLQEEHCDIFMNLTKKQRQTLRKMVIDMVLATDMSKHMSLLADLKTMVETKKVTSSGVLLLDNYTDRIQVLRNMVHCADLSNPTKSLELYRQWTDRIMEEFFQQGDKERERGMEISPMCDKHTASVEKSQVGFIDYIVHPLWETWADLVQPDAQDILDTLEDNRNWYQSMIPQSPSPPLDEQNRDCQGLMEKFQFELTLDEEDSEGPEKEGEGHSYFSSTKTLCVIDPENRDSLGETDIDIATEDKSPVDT

Ki (Phosphodiesterase) [µM]	Ki [1] [µM]	Structure (SMILES)
1.58	2.51	COc1ccc(C2=NN(C3CCCCCC3)C(=O)[C@@H]3CC=CC[C@H]23)cc1-c1ccc(C(=O)N2CC(=O)N(C)C2)cc1
0.631	0.631	COc1ccc(C2=NN(C3CCCCCC3)C(=O)[C@@H]3CC=CC[C@H]23)cc1-c1ccc(C(=O)N2CNC(=O)C2)cc1
1	3.16	COc1ccc(C2=NN(C3CCCCCC3)C(=O)[C@@H]3CC=CC[C@H]23)cc1-c1ccc(C(=O)N2CCC(=O)C2)cc1

Structure (SMILES)	Ki (Phosphodiesterase) [µM]	Ki [1] [µM]
COc1ccc(C2=NN(C3CCCCCC3)C(=O)[C@@H]3CC=CC[C@H]23)cc1-c1ccc(C(=O)NCC(N)=O)cc1	0.04	0.63
